Measured values from US6670394B1, “Method for treating COPD” (SmithKline Beecham Corporation, priority 1999, dated 2003).

Tests used:
[1] = molecular target: T1, low affinity form of PDE 4 (human monocyte PDE 4 / hrPDE) (Homo sapiens, UniProt P27815); experiment: PDE 4 catalytic activity assay (low affinity form, LPDE 4); format: biochemical; settings: HPDE 4 IC50/LPDE 4 IC50
T1 construct: made in house; host or cells: yeast
Description: Overall, most of the recombinant PDE 4 expressed in this system exists as LPDE 4 and only a small fraction as HPDE 4. Consequently, inhibition of recombinant PDE 4 catalytic activity primarily reflects the actions of compounds at LPDE 4. Inhibition of PDE 4 catalytic activity can thus be used as an index of the potency of compounds at LPDE 4.

[2] = molecular target: high affinity rolipram binding site of PDE 4; experiment: [3H]-rolipram binding competition assay (high affinity form, HPDE 4); settings: competition for 1 nM [3H]-rolipram, rat brain high speed supernatants, 1 hour at 30° C.
Procedure: Rat brain high speed supernatants were used as a source of protein. […] The assay was run for 1 hour at 30° C. The reaction was terminated and bound ligand was separated from free ligand using a Brandel cell harvester. Competition for the high affinity binding site was assessed under conditions that were identical to those used for measuring low affinity PDE activity, expect that [^3H]-cAMP and [^3H]5′-AMP were not present.

[3] = test system: TNFα production from isolated human monocytes; acid secretion in isolated rabbit parietal glands; experiment: Therapeutic index, in vitro comparison: TNFα suppression in human monocytes versus acid secretion in rabbit parietal glands; format: cell-based; settings: in comparison with R-rolipram
Procedure: Samples were then centrifuged and radioactivity in aliquots of the supernatant fraction and pellet were determined. […] The data were expressed as a percent of a response produced by a maximal concentration of histamine (100 μM). EC50 values were determined by linear interpolation using the maximum response obtained for each compound.
TNFα inhibition was assessed in human peripheral blood monocytes which were purified (Collata) from freshly obtained buffy coats or plasma-phoresis residues of blood from normal human donors. […] The cells were allowed to adhere for 1 hr, after which time the supernatant was aspirated and 1 ml of fresh medium (RPMI-1640 containing 1% fetal calf serum and penicillin/streptomycin at 10 U/ml) was added. The cells were incubated for 45 min in the presence or absence of test compounds at concentrations ranging from 1 nM to 1 mM prior to the addition of LPS (E. coli. 055:B5, Sigma Chemicals) to yield a final concentration of 100 ng/ml. […]
Levels of TNFα were measured using a ELISA (Winston) employing a murine monoclonal anti-human TNFα antibody (see below) as the capture antibody and a polyclonal rabbit antihuman TNFα as the second antibody. […] TNFα levels in samples were calculated from a standard curve generated with recombinant human TNFα produced in E. coli. […]

acid secretion = settings: rats, particularly in combination with an activator of adenylate cyclase such as histamine; cited from earlier work
COPD = experiment: Administration to humans suffering from COPD; format: in vivo, human
Procedure: As regards treating COPD, the compound cis-[4-cyano-4-(3-cyclopentyloxy-4-methoxyphenyl)cyclohexan-1-carboxylate] was administered to humans suffering from COPD.

[4] = clinical studies; cited from earlier work

T1 sequence (P27815 1-686 isoform P27815-3): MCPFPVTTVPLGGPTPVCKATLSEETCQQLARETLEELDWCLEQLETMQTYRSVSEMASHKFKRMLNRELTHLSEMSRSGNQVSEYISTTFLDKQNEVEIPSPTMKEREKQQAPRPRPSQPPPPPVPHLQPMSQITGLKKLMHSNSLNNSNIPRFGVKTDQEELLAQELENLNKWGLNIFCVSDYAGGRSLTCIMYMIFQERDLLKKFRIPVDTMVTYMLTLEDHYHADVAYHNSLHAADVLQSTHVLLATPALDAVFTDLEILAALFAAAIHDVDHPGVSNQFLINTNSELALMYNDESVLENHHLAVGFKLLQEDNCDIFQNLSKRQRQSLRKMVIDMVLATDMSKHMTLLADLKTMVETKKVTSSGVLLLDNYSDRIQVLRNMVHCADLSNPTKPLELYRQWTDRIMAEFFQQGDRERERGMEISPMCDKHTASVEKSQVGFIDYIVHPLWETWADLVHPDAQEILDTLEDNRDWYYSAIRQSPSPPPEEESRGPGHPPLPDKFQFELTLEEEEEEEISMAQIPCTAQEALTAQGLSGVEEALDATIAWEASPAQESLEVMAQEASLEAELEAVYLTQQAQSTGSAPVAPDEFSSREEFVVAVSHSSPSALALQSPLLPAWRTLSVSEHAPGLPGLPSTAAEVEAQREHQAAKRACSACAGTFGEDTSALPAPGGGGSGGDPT

Compound	High/Low Ratio (IC50 high affinity form divided by IC50 low affinity form) [1]	also measured
COc1ccc([C@@H]2CC[C@H](C(=O)O)C2)cc1OC1CCCC1 (relative stereo) [cis-[3-(3-cyclopentyloxy-4-methoxyphenyl)cyclopentane-1-carboxylate]]	0.0078	IC50 [2]: 21 nM
COc1ccc(C2CN(Cc3ccc(N)cc3)C(=O)N2)cc1OC1CCCC1 (centres unmarked) [1-(4-aminobenzyl)-4-(3-cyclopentyloxy-4-methoxyphenyl)-2-imidazolidinone]	0.07	–
COc1ccc(C2CCC(c3nnn[nH]3)C2)cc1OC1CCCC1 (centres unmarked) [1-(5-tetrazole)-3-(3-cyclopentyloxy-4-methoxyphenyl)cyclopentane]	0.0018	–
COC(=O)C1CC(C#N)(c2ccc(OC(F)F)c(OCC3CC3)c2)CCC1=O (centres unmarked) [2-carbomethoxy-4-cyano-4-(3-cyclopropylmethoxy-4-difluoromethoxyphenyl)cyclohexan-1-one]	–	improvement in therapeutic index [3]: 100 fold
COc1ccc(C2CCN(Cc3ccc(NC(=NC#N)SC)cc3)C2=O)cc1OC1CCCC1 (centres unmarked) [3-(cyclopentyloxy-4-methoxyphenyl)-1-(4-N′-[N2-cyano-S-methyl-isothioureido]benzyl)-2-pyrrolidone]	0.30	–
CCOC(=O)C=C1C[C@H](c2ccc(OC)c(OC3CCCC3)c2)CN1 [(R)-(+)-ethyl [4-(3-cyclopentyloxy-4-methoxyphenyl)pyrrolidine-2-ylidene]acetate]	2.143	–
CCOC(=O)C=C1C[C@@H](c2ccc(OC)c(OC3CCCC3)c2)CN1 [(S)-(−)-ethyl[4-(3-cyclopentyloxy-4-methoxyphenyl)pyrrolidine-2-ylidene]acetate]	.98	–
CC(C)Cn1c(=O)n(C)c(=O)c2[nH]cnc21 [IBMX, reference compound]	0.698	–
NC(=O)C(=O)NCCc1ccc(OC(F)F)c(OC(F)F)c1 [N-[2-(3,4-bisdifluoromethoxy-phenyl)ethyl]oxamide]	0.25	–
COc1ccc(CCNC(=O)C(N)=O)cc1OC1CCCC1 [N-[2-(3-cyclopentyloxy-4-methoxyphenyl)ethyl]oxamide]	0.013	–
CCCCOc1cc(CC2CNC(=O)N2)ccc1OC (centres unmarked) [Ro 20-1724]	–	acid secretion (acid secretion): enhance acid secretion
COc1ccc(C2(C#N)CCC(C(=O)O)CC2)cc1OC1CCCC1 (stereo not drawn) [cis-[4-cyano-4-(3-cyclopentyloxy-4-methoxyphenyl)cyclohexan-1-carboxylate]]	–	effect in subjects suffering from COPD (COPD): reduced inflammation, bronchodilation and pulmonary neuromodulation
N#CC1(c2ccc(OC(F)F)c(OCC3CC3)c2)CCC(O)CC1 (stereo not drawn) [cis-[4-cyano-4-(3-cyclopropylmethoxy-4-difluoromethoxyphenyl)cyclohexan-1-ol]]	–	improvement in therapeutic index [3]: 100 fold
OCCN(CCO)c1nc(N2CCCCC2)c2nc(N(CCO)CCO)nc(N3CCCCC3)c2n1 [dipyridamole, reference compound]	6.25	–
COc1ccc(C2CNC(=O)C2)cc1OC1CCCC1 (centres unmarked) [rolipram]	–	side effects [4]: has psychotropic activity and produces gastrointestinal effects; acid secretion (acid secretion): enhance acid secretion
